The source of these data is paper PMC3135787 (Antiviral research, 2011).

Read-outs that look alike come from different tables or passages of the source.

In data set [1] the test system is primary human hepatocytes. To be noted: primary human hepatocytes from three donors.
Data set [2] deals with HepG2 cells. The data set can be described thus: Mitochondrial COXII DNA and ribosomal DNA by real time PCR, HepG2. It counts as cell-based, human. To be noted: HepG2 cells, 0.5 μM (lowest concentration tested), 14 days.
In data set [3] the test system is mitochondrial COXII DNA (mtDNA). The description is as above. The format is cell-based, human. To be noted: human.
Data set [4] has as its system ribosomal DNA (rDNA). Described as above. The format is cell-based, human. To be noted: human.
Data set [5] has as its system HepG2 cells. Nature of the data set: Lactic acid production, HepG2. The following applies: 7 days, normalised to rDNA.
Data set [6] has as its system mitochondrial COXII DNA (mtDNA). The data set can be described thus: Mitochondrial COXII DNA and ribosomal DNA by real time PCR, CEM. The format is cell-based, human. To be noted: human.
The test system of data set [7] is ribosomal DNA (rDNA). The data set is described as above. The format is cell-based, human. To be noted: human.
In data set [8] the test system is CEM cells. Described as above. The format is cell-based, human. The following applies: CEM cells, 0.5 μM (lowest concentration tested), 14 days.
In data set [9] the test system is CEM cells. Nature of the data set: Lactic acid production, CEM. To be noted: 7 days, normalised to rDNA.
Data set [10] concerns the target L-alanine dehydrogenase (Ala-DH) (Bacillus subtilis, UniProt Q08352).
Data set [11] concerns primary human hepatocytes.
Data set [12] has as its target recombinant NS5B genotype 2a (JFH-1 strain) (Hepatitis C virus genotype 2a, UniProt Q99IB8). The data set can be described thus: NS5B polymerase assay, genotype 2a. The format is biochemical, HCV.
Data set [13] concerns the target recombinant HCV NS5B genotype 1b (Con1 strain), wild-type (Hepatitis C virus genotype 1b, UniProt Q9WMX2). Nature of the data set: NS5B polymerase assay, genotype 1b wild-type. The format is biochemical.
For data set [14], the target named is recombinant NS5B genotype 3a (Hepatitis C virus genotype 3a, UniProt Q81258). Nature of the data set: NS5B polymerase assay, genotype 3a. It counts as biochemical, HCV.
Data set [15] concerns the target recombinant NS5B genotype 4a (Hepatitis C virus genotype 4a, UniProt O39929). Nature of the data set: NS5B polymerase assay, genotype 4a. It counts as biochemical, HCV.
Data set [16] has as its system S282T genotype 1b NS5B (Con1 strain). The data set can be described thus: biochemical. Set-up: species or system HCV. The following applies: genotype 1b RdRp, 5 μM NTPs.
Data set [17] has as its target S282T genotype 1b NS5B (Con1 strain) (Hepatitis C virus genotype 1b, UniProt Q9WMX2, S2701T). The data set can be described thus: biochemical. Set-up: species or system HCV.
Data set [18] deals with primary human hepatocytes. The data set can be described thus: Metabolism of [3H]-PSI-353661 in primary human hepatocytes. The format is in vitro ADME. To be noted: for time to maximum intracellular concentration: continuous exposure to 5 μM [3H]-PSI-353661.
A further data set concerns the target rabbit muscle PK (Oryctolagus cuniculus, UniProt P11974). The data set can be described thus: Phosphorylation by pyruvate kinase. The following applies: kinetic parameters unable to be determined (Km too high). The format is biochemical.
The test system of data set [19] is Human nucleoside diphosphate kinase (NDPK). The data set can be described thus: NDPK-mediated phosphorylation, coupled assay. The format is biochemical.
The target in data set [20] is 3-phosphoglycerate kinase (3-PGK) (Saccharomyces cerevisiae, UniProt P00560). Nature of the data set: Phosphorylation by 3-phosphoglycerate kinase. It counts as biochemical, bakers yeast. To be noted: kinetic parameters unable to be determined (Km too high).
The subject of data set [21] is ET replicon with NS5B S96T/N142T. Nature of the data set: microbe, parasite or virus in culture. It counts as cell-based, HCV.
Data set [22] in a line: 8-day MTS cytotoxicity assay, CEM. The format is cell-based, human. To be noted: human.
A short description of data set [23]: 8-day MTS cytotoxicity assay, Huh7. The format is cell-based, human. To be noted: human.
Data set [24] is described as follows: 8-day MTS cytotoxicity assay, BxPC3. The format is cell-based, human. The following applies: human.
Data set [25] can be described thus: 8-day MTS cytotoxicity assay, HepG2. The following applies: human. The format is cell-based, human.
The test system of data set [26] is Clone A replicon with NS5B S282T. The data set can be described thus: microbe, parasite or virus in culture. The format is cell-based, HCV.
For data set [27], the system named is Clone A wild type replicon. The data set can be described thus: Cross resistance: Clone A wild type replicon, RT-PCR. The format is cell-based, HCV. To be noted: Hepatitis C virus, read-out: EC90 WT replicon.
Where [28] appears, read: Hepatitis C virus, read-out: EC90 Mutant replicon.

Sequence of rabbit muscle PK (P11974 whole entry): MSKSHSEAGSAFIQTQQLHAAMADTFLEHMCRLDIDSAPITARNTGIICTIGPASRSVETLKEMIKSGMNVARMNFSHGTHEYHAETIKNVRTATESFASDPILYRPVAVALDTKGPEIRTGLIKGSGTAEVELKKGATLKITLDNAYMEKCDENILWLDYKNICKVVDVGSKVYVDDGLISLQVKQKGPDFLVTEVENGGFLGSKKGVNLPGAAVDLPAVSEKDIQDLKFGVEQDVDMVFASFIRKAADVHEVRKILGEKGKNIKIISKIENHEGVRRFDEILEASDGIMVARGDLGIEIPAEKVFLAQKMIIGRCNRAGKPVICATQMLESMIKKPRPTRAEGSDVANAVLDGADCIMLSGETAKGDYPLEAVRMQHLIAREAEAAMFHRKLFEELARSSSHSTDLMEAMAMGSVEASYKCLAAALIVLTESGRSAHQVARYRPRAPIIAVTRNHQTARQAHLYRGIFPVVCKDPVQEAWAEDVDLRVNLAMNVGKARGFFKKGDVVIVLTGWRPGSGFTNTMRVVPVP
Sequence of 3-phosphoglycerate kinase (3-PGK) (P00560 whole entry): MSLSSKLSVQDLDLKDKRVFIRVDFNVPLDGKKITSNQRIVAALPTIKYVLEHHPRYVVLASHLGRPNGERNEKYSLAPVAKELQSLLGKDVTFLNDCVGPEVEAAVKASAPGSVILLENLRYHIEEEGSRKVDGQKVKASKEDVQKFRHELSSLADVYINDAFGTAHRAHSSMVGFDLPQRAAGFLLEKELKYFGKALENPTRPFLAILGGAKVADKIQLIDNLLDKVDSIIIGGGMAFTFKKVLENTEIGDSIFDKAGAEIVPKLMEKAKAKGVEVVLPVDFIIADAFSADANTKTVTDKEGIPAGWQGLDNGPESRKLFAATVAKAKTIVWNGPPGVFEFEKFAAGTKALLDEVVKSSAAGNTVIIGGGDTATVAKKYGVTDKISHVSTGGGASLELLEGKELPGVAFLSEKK
Sequence of L-alanine dehydrogenase (Ala-DH) (Q08352 whole entry): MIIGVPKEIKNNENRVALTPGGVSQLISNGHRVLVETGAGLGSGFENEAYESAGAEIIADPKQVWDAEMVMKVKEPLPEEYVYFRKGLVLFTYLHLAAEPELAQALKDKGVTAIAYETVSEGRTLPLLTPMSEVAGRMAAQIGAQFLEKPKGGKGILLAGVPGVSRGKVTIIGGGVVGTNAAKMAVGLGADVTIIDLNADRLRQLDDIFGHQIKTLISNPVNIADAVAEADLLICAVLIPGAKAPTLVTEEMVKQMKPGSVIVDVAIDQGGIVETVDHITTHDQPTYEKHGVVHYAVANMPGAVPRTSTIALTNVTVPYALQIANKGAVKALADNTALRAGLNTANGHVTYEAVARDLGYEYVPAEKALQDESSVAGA

Turning to `O=[N+]([O-])c1ccc(OP(=O)(O)Oc2ccc([N+](=O)[O-])cc2)cc1` [BNPP, bis(4-nitrophenyl)phosphate], the “effect on formation of the triphosphate PSI-352666 from PSI-353661” value in data set [1] is recorded as “inhibited the formation of PSI-352666 in hepatocytes from three different donors in a dose-dependent manner”.
Consider `Nc1ccn([C@H]2CC[C@@H](CO)O2)c(=O)n1` [ddC, 2′,3′-dideoxycytidine], for which the “reduction of mitochondrial DNA levels” value in the data set on HepG2 cells [2] and in the data set with CEM cells [8] was “more than one log10” each time. The CC90 at 14 days in data set [3] was less than 500 nM; with ribosomal DNA (rDNA) [4] (HepG2 cells) it was 12900 ± 9100 nM; in [6], less than 500 nM; in the data set on ribosomal DNA (rDNA) [7] (CEM cells) it was 22900 ± 11900 nM. For the same molecule, the “Lactic acid (Fold change from untreated cells)” value in the data set with HepG2 cells [5] (0.1 μM) is 1.6 ± 0.68; with HepG2 cells [5] (1.0 μM), 1.4 ± 0.12; in the data set with HepG2 cells [5] (10 μM), 3.9 ± 0.93; in the data set with HepG2 cells [5] (50 μM), “Toxic”; in the data set with CEM cells [9] (0.1 μM), 0.9 ± 0.3; in the data set with CEM cells [9] (1.0 μM), 2.2 ± 0.81. Also, the results for the “Lactic acid (Fold change from untreated cells)” value in the data set on CEM cells [9] (10 μM) and with CEM cells [9] (50 μM) were 4.2 ±1.0 and “Toxic”, respectively.
As for `C[C@H](N)C(=O)O` [alanine, L-alanine], in data set [10], the Vmax is 0.0206 ± 0.0005 ΔA340/min.
Turning to `CCC[C@H](NC(=O)[C@@H]1[C@H]2CCC[C@H]2CN1C(=O)[C@@H](NC(=O)[C@@H](NC(=O)c1cnccn1)C1CCCCC1)C(C)(C)C)C(=O)C(=O)NC1CC1` [telaprevir], the “effect on formation of the triphosphate PSI-352666 from PSI-353661” value in [11] is “not inhibited by telaprevir in hepatocytes from two of the three donors”.
Take `C[C@@]1(F)[C@H](O)[C@@H](COP(=O)(O)OP(=O)(O)OP(=O)(O)O)O[C@H]1n1cnc2c(=O)[nH]c(N)nc21` [PSI-352666, 2′-deoxy-2′-α-fluoro-2′-β-C-methylguanosine-5′-triphosphate]: the IC50 worked out at 4700 ± 600 nM in data set [12]; 1000 ± 200 nM in data set [13] (IC50, genotype 1b NS5B, 1 μM NTPs); 4000 ± 1100 nM in data set [13] (IC50, wild-type genotype 1b RdRp, 5 μM NTPs); 1300 ± 500 nM in data set [14]; 4200 ± 800 nM in [15]; 9200 ± 1400 nM in [17]. Also, in [16], the “fold difference in IC50, S282T mutant vs wild-type” value is recorded as roughly 2 fold. In [18] (after 4 hours of exposure to PSI-353661), this molecule came in with an intracellular concentration greater than 50 µM. The “time to maximum intracellular concentration” value in [18] was “about 4 hours”.
`C[C@@]1(F)[C@H](O)[C@@H](COP(=O)(O)OP(=O)(O)O)O[C@H]1n1cnc2c(=O)[nH]c(N)nc21` [PSI-353579, 2′-deoxy-2′-α-fluoro-2′-β-C –methylguanosine-5′-diphosphate]: on rabbit muscle PK, the “phosphorylation by PK” value is recorded as “Phosphorylation of PSI-353579 was also observed”. In [19] (25 °C, PK contributed in the phosphorylation), the “kcat (apparent)” value came out at 44.6 ± 4.9 s⁻¹. Also, in [19] (read-out: Km (apparent), 25 °C, PK contributed in the phosphorylation), the Km is 66.3 ± 2.2 µM. The “phosphorylation by 3-PGK” value in data set [20] was “Phosphorylation of PSI-353579 was also observed”. Besides, the “time to maximum intracellular concentration” value in [18] lay in the range of 1 to 2 h.
Turning to `COc1nc(N)nc2c1ncn2[C@@H]1O[C@H](COP(=O)(N[C@@H](C)C(=O)OCC(C)(C)C)Oc2cccc3ccccc23)[C@@H](O)[C@@]1(C)O` (stereo partly shown) [INX-08189], the results for the EC90 in [21] (setting [28]), in data set [26] (setting [28]) and in [27] were 5.9 ± 2.7 nM, 110 ± 4 nM and 18 ± 1 nM, respectively. For the same molecule, the EC90 fold change in data set [21] (S96T/N142T mutant EC90 normalised to wild-type) was found to be 1.1; in [26] (S282T mutant EC90 normalised to wild-type), 6.1. The half-maximal cytotoxic concentration (CC50) at 8 days in data set [22] was 15000 ± 2000 nM; in [23], 320 ± 30 nM; in data set [24], 2810 ± 1520 nM; in data set [25] it was 2230 ± 100 nM. Besides, the CC90 at 14 days in data set [3] was determined as 970 ± 620 nM; in the data set with ribosomal DNA (rDNA) [4], 750 ± 270 nM; in data set [6], 16900 ± 1700 nM; with ribosomal DNA (rDNA) [7] it was 16300 ± 4100 nM. In addition, the “Lactic acid (Fold change from untreated cells)” value in the data set on HepG2 cells [5] (0.1 μM) is given as 1.1 ± 0.21; in the data set with HepG2 cells [5] (1.0 μM), 3.1 ± 0.61; in the data set with HepG2 cells [5] (10 μM), “Toxic”; in the data set with HepG2 cells [5] (50 μM), “Toxic”; in the data set on CEM cells [9] (0.1 μM), 1.4 ± 0.35; in the data set with CEM cells [9] (1.0 μM) it was 1.4 ± 0.69. For the same molecule, the “Lactic acid (Fold change from untreated cells)” value with CEM cells [9] (10 μM) is on record as 1.5 ± 0.50; with CEM cells [9] (50 μM), “Toxic”.
